Assay results from patent US4609667A, “Inhibitor of mammalian collagenase and elastase” (American Home Products Corporation, priority 1985, dated 1986).

Key:
Assay type in all cases: biochemical
[1] = molecular target: Collagenase produced by normal human leukocytes or by normal human skin fibroblasts; assay: in vitro collagenase inhibition assay (14C-acetylated collagen hydrolysis); conditions: pH 7.4, 35° C., one to five hours
Method: The compound N-[[(5-chloro-2-benzothiazolyl)thio]-phenylacetyl]-L-cysteine is tested for collagenase inhibition in an in vitro assay based on the procedure described by A. Sellers and J.J. Reynolds, Biochem. J., 167 (1977) pp. 353-60.
Collagenase produced by normal human leukocytes or by normal human skin fibroblasts in cell cultures is purified by adsorption onto a collagen Sepharose 4B column. Prior to use in the assay, the zymogen is activated with trypsin, while the trypsin in turn, is inactivated with an excess of soybean trypsin inhibitor.
According to the assay procedure, microfuge tubes are prepared containing a total of about 150 μl. of solution containing: 25 μl. collagen (^14 C-acetylated collagen--2 mg./ml in 0.01% acetic acid); 25 μl. of 0.15 M tris/0.015 M CaCl2, pH 7.4; 75 μl. collagenase in tris buffer (0.05 M tris/0.005 M CaCl2, pH 7.4); and 25 μl. of collagenase inhibitor in tris buffer. Samples and controls are incubated at 35° C. for one to five hours depending upon potency of the enzyme. At the end of the reaction period, the tubes are spun down in a Beckman Microfuge. A 25 μl. aliquot of each tube is then assayed in a scintillation counter. Since native collagen forms insoluble fibrils under these conditions, radioactivity detected in the supernate is a measure of collagen hydrolysis. […]

human leukocyte elastase [2] = molecular target: T1, human leukocyte elastase (Homo sapiens, UniProt P08246); assay: human elastase inhibition in vitro assay, Method 1 (succinyl-L-alanyl-L-alanyl-L-alanyl-p-nitroanilide substrate)
T1 construct: A crude elastase preparation is made by homogenizing human leukocyte granules; from tissue; host or cells: human leukocyte granules (homogenized, supernatant dialyzed; crude preparation)
T1 sequence (P08246 30-247 limits assumed): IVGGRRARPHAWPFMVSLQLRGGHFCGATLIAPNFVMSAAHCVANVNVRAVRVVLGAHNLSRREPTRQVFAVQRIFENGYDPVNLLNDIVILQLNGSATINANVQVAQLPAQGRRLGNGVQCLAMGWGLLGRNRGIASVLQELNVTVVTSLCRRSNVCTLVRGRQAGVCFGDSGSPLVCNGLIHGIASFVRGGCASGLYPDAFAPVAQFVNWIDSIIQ
Method: (§1) The compound N-[[5-chloro-2-benzothiazolyl)thio]-phenylacetyl]-L-cysteine is tested for human elastase inhibition in an in vitro assay which is carried out as follows:
(§2) A crude elastase preparation is made by homogenizing human leukocyte granules [prepared according to the method of R. J. Baryk and J. Travis, Biochemistry, 15, (4), 837 (1976)], spinning and dialyzing the supernates against cold 0.05 M trisHCl/0.05 M Na Cl at a pH 8.0.
(§3) This elastase preparation is used in two assay methods to test for elastase inhibition.
400 μl of the elastase preparation, 10 μl (0.0625 mg) of succinyl-L-alanyl-L-alanyl-L-alanyl-p-nitroanilide (the enzyme substrate), 207 μl of buffer and varying amounts of the elastase inhibitor under testing are incubated at 37° C. for 19 hours. The hydrolysis is measured by use of high pressure liquid chromatography (HPLC) or by the spectrophotometric measurement of the release of p-nitroaniline at a wavelength of 410 nm.

human leukocyte elastase [3] = molecular target: T1, human leukocyte elastase; assay: human elastase inhibition in vitro assay, Method 2 (elastin-Congo red complex); conditions: 20 μg of compound; 37° C., 18 hours; Standard (complete hydrolysis by hog pancreatic elastase) 1.0; No Inhibitor 0.104
Method: as §1, §2, §3
In this method, the substrate used is an elastin-Congo red complex. Hydrolysis of this substrate by elastase releases Congo red, which is assayed by HPLC. The assay system also contains buffer and either 20 μg of the compound of Example 1, or no compound. The system is incubated at 37° C. for 18 hours. The standard sample represents the complete hydrolysis of the elastin-Congo red complex by hog pancreatic elastase.

**Q.** What does the source list for `O=C(N[C@@H](CS)C(=O)O)C(Sc1nc2cc(Cl)ccc2s1)c1ccccc1` (stereo partly drawn) [Example 1, N-[[(5-chloro-2-benzothiazolyl)thio]phenylacetyl]-L-cysteine]?
**A.** IC50 ([1]; Experiment 1: Collagen I as substrate): 5.7 µM; IC50 ([1]; Experiment 2: Collagen II as substrate): 12.5 µM; IC50 (human leukocyte elastase [2]; 37° C., 19 hours, HPLC or 410 nm): 4.78 µM; inhibitory effect on the enzymatic activity of human leukocyte elastase (in words) (human leukocyte elastase [2]; conclusion from Methods 1 and 2): strong inhibitory effect; Relative Release of Congo Red (human leukocyte elastase [3]): 0.000
